Test results reported in PubChem BioAssay AID256 (DTP/NCI, 2004).
Several values for one entry are separate records, joined by “and”; a condition that tells them apart may be missing. Identical values can stand only once. Inconclusive results and toxic doses are left out. Rule for the calls: active = survival T/C of 150% or more; inactive = T/C below 125% in these data.

System: CD2F1 mice, L1210 leukemia ip, survival T/C
Assay: NCI In Vivo Anticancer Drug Screen. Data for tumor model L1210 Leukemia (intraperitoneal) in CD2F1 (CDF1) mice
Conditions: higher = longer survival
Procedure, shortened: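 Implant tumor; dose compound or vehicle; measure endpoint in both groups; report treated divided by control.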

[1] = endpoint: mean survival time, dose: 100.0 mg/kg/injection, schedule: Q01DX009 (ip), vehicle: saline with Tween-80
[2] = endpoint: mean survival time, dose: 200.0 mg/kg/injection, schedule: Q01DX009 (ip), vehicle: saline with Tween-80
[3] = endpoint: mean survival time, dose: 400.0 mg/kg/injection, schedule: Q01DX009 (ip), vehicle: saline with Tween-80
[4] = endpoint: mean survival time, dose: 100.0 mg/kg/injection, schedule: Q04DX003 (ip), vehicle: saline with Tween-80
[5] = endpoint: mean survival time, dose: 200.0 mg/kg/injection, schedule: Q04DX003 (ip), vehicle: saline with Tween-80
[6] = endpoint: mean survival time, dose: 400.0 mg/kg/injection, schedule: Q04DX003 (ip), vehicle: saline with Tween-80

Measured: T/C

Cc1nc(N)nc(N)c1-c1ccc(Cl)c(Cl)c1
inactive: endpoint: mean survival time, dose: 1.0 mg/kg/injection, schedule: Q01DX009 (ip), vehicle: Klucel (hydroxypropylcellulose) (HPC) 106 % of control | endpoint: mean survival time, dose: 1.0 mg/kg/injection, schedule: Q01DX009 (ip), vehicle: saline with Tween-80 107 % of control | endpoint: mean survival time, dose: 1.0 mg/kg/injection, schedule: Q02DX005 (ip), vehicle: saline 115 % of control | endpoint: mean survival time, dose: 1.25 mg/kg/injection, schedule: Q01DX005 (ip), vehicle: distilled water + Tween-80 95 % of control | endpoint: mean survival time, dose: 1.25 mg/kg/injection, schedule: Q01DX005 (ip), vehicle: water 104 % of control | endpoint: mean survival time, dose: 1.3 mg/kg/injection, schedule: Q01DX009 (sc), vehicle: other 123 % of control | endpoint: mean survival time, dose: 2.0 mg/kg/injection, schedule: Q01DX009 (ip), vehicle: Klucel (hydroxypropylcellulose) (HPC) 107 % of control | endpoint: mean survival time, dose: 2.0 mg/kg/injection, schedule: Q01DX009 (ip), vehicle: saline with Tween-80 119 % of control | endpoint: mean survival time, dose: 2.0 mg/kg/injection, schedule: Q02DX005 (ip), vehicle: saline 115 % of control | endpoint: mean survival time, dose: 2.5 mg/kg/injection, schedule: Q01DX005 (ip), vehicle: distilled water + Tween-80 93 % of control | endpoint: mean survival time, dose: 2.5 mg/kg/injection, schedule: Q01DX005 (ip), vehicle: water 100 % of control | endpoint: mean survival time, dose: 4.0 mg/kg/injection, schedule: Q01DX009 (ip), vehicle: Klucel (hydroxypropylcellulose) (HPC) 109 % of control | endpoint: mean survival time, dose: 4.0 mg/kg/injection, schedule: Q02DX005 (ip), vehicle: saline 107 % of control | endpoint: mean survival time, dose: 4.0 mg/kg/injection, schedule: Q03DX002 (ip), vehicle: saline with Tween-80 108 % of control | endpoint: mean survival time, dose: 5.0 mg/kg/injection, schedule: Q01DX005 (ip), vehicle: distilled water + Tween-80 98 % of control | endpoint: mean survival time, dose: 5.0 mg/kg/injection, schedule: Q01DX005 (ip), vehicle: water 100 % of control | endpoint: mean survival time, dose: 5.0 mg/kg/injection, schedule: Q02DX005 (ip), vehicle: saline 87 % of control | endpoint: mean survival time, dose: 5.0 mg/kg/injection, schedule: Q## X005 (ip), vehicle: saline 117 % of control | endpoint: mean survival time, dose: 6.0 mg/kg/injection, schedule: Q03DX002 (ip), vehicle: saline with Tween-80 103 % of control | endpoint: mean survival time, dose: 8.0 mg/kg/injection, schedule: Q03DX002 (ip), vehicle: saline with Tween-80 93 % of control | endpoint: mean survival time, dose: 10.0 mg/kg/injection, schedule: Q01DX005 (ip), vehicle: distilled water + Tween-80 102 % of control | endpoint: mean survival time, dose: 10.0 mg/kg/injection, schedule: Q01DX005 (ip), vehicle: water 98 % of control | endpoint: mean survival time, dose: 10.0 mg/kg/injection, schedule: Q03DX002 (ip), vehicle: saline with Tween-80 110 % of control | endpoint: mean survival time, dose: 10.0 mg/kg/injection, schedule: Q## X005 (ip), vehicle: saline 102 % of control | endpoint: mean survival time, dose: 12.0 mg/kg/injection, schedule: Q03DX002 (ip), vehicle: saline with Tween-80 117 % of control | endpoint: mean survival time, dose: 16.0 mg/kg/injection, schedule: Q01DX009 (ip), vehicle: Klucel (hydroxypropylcellulose) (HPC) 111 % of control | endpoint: mean survival time, dose: 20.0 mg/kg/injection, schedule: Q01DX005 (ip), vehicle: distilled water + Tween-80 100 % of control | endpoint: mean survival time, dose: 20.0 mg/kg/injection, schedule: Q01DX005 (ip), vehicle: water 98 % of control | endpoint: mean survival time, dose: 20.0 mg/kg/injection, schedule: Q04DX002 (ip), vehicle: saline 97 % of control | endpoint: mean survival time, dose: 20.0 mg/kg/injection, schedule: Q## X005 (ip), vehicle: saline 88 % of control | endpoint: mean survival time, dose: 30.0 mg/kg/injection, schedule: Q04DX002 (ip), vehicle: saline 107 % of control | endpoint: mean survival time, dose: 40.0 mg/kg/injection, schedule: Q04DX002 (ip), vehicle: saline 118 % of control and 103 % of control | endpoint: mean survival time, dose: 50.0 mg/kg/injection, schedule: Q04DX002 (ip), vehicle: saline 100 % of control | endpoint: mean survival time, dose: 60.0 mg/kg/injection, schedule: Q04DX002 (ip), vehicle: saline 108 % of control | endpoint: mean survival time, dose: 75.0 mg/kg/injection, schedule: Q04DX003 (ip), vehicle: saline 118 % of control | endpoint: median survival time, dose: 0.62 mg/kg/injection, schedule: Q01DX009 (ip), vehicle: saline 96 % of control | endpoint: median survival time, dose: 1.25 mg/kg/injection, schedule: Q01DX009 (ip), vehicle: saline 97 % of control | endpoint: median survival time, dose: 5.0 mg/kg/injection, schedule: Q01DX009 (ip), vehicle: saline 111 % of control | endpoint: median survival time, dose: 10.0 mg/kg/injection, schedule: Q01DX009 (ip), vehicle: saline 113 % of control | endpoint: median survival time, dose: 20.0 mg/kg/injection, schedule: Q01DX009 (ip), vehicle: saline 97 % of control

NC(=O)N/N=C\c1ccc(O)cn1
inactive: [1] 93 % of control | [2] 93 % of control | [3] 92 % of control

O=C(c1ccccc1)c1cn(C2CCCCC2)c(-c2ccccc2)c1NC1CCCCC1
inactive: [4] 87 % of control | [5] 87 % of control | [6] 94 % of control

NC(=O)NC1CCCCCCC1
inactive: [1] 102 % of control | [2] 100 % of control | [3] 110 % of control

CCC(C)N(C)/N=N/c1nc[nH]c1C(N)=O (stereo unspecified)
inactive: [2] 104 % of control

CCCCCC[Si]
inactive: endpoint: mean survival time, dose: 75.0 mg/kg/injection, schedule: Q01DX009 (ip), vehicle: saline with Tween-80 94 % of control | endpoint: mean survival time, dose: 150.0 mg/kg/injection, schedule: Q01DX009 (ip), vehicle: saline with Tween-80 94 % of control | endpoint: mean survival time, dose: 300.0 mg/kg/injection, schedule: Q01DX009 (ip), vehicle: saline with Tween-80 98 % of control

CC12CCC(O1)C1C(=O)NC(=O)C12 (stereo unspecified)
inactive: [4] 94 % of control | [5] 89 % of control | [6] 98 % of control

O=[N+]([O-])c1ccc(N(CCO)CCO)c2c1no[n+]2[O-]
inactive: endpoint: median survival time, dose: 12.5 mg/kg/injection, schedule: Q01DX009 (ip), vehicle: saline with Tween-80 114 % of control | endpoint: median survival time, dose: 25.0 mg/kg/injection, schedule: Q01DX009 (ip), vehicle: saline with Tween-80 111 % of control | endpoint: median survival time, dose: 50.0 mg/kg/injection, schedule: Q01DX009 (ip), vehicle: saline with Tween-80 114 % of control

O=C(O)c1cc(-c2ccc(-c3ccc(-c4cc(C(=O)O)c5cc(Cl)ccc5n4)cc3)cc2)nc2ccc(Cl)cc12
inactive: [1] 91 % of control | [2] 91 % of control | [3] 100 % of control

O=C(O)CC(=O)O.[NH-]CC(O)C[NH-].[Pt+2]
inactive: endpoint: median survival time, dose: 20.0 mg/kg/injection, schedule: Q04DX003 (ip), vehicle: water 96 % of control | endpoint: median survival time, dose: 40.0 mg/kg/injection, schedule: Q04DX003 (ip), vehicle: water 110 % of control

NCCCNC/C=C/CNCCCN
inactive: endpoint: mean survival time, dose: 37.5 mg/kg/injection, schedule: Q01DX009 (ip), vehicle: saline 98 % of control | endpoint: mean survival time, dose: 75.0 mg/kg/injection, schedule: Q01DX009 (ip), vehicle: saline 101 % of control | endpoint: mean survival time, dose: 150.0 mg/kg/injection, schedule: Q01DX009 (ip), vehicle: saline 101 % of control

CC(C)(C)c1nc2ccccc2p1-c1ccccc1 (stereo unspecified)
inactive: endpoint: mean survival time, dose: 100.0 mg/kg/injection, schedule: Q01DX001 (ip), vehicle: other 98 % of control | endpoint: mean survival time, dose: 200.0 mg/kg/injection, schedule: Q01DX001 (ip), vehicle: other 91 % of control | endpoint: mean survival time, dose: 400.0 mg/kg/injection, schedule: Q01DX001 (ip), vehicle: other 95 % of control

Cc1c(N)nc(C(CC(N)=O)NCC(N)C(N)=O)nc1C(=O)NC(C(=O)NC(C)C(O)CC(=O)NC(C(=O)NC(OC1OC(C)C(N)C(O)C1O)C(O)c1nc(-c2nc(C(=O)NCCCC(N)CC(=O)NCCCNCCCCN)cs2)cs1)C(C)O)C(OC1OC(CO)C(O)C(O)C1OC1OC(CO)C(O)C(OC(N)=O)C1O)c1cnc[nH]1 (stereo unspecified)
inactive: endpoint: mean survival time, dose: 1.0 mg/kg/injection, schedule: Q01DX009 (ip), vehicle: saline 103 % of control | endpoint: mean survival time, dose: 2.0 mg/kg/injection, schedule: Q01DX009 (ip), vehicle: saline 101 % of control | endpoint: mean survival time, dose: 4.0 mg/kg/injection, schedule: Q01DX009 (ip), vehicle: saline 104 % of control | endpoint: mean survival time, dose: 8.0 mg/kg/injection, schedule: Q01DX009 (ip), vehicle: saline 104 % of control | endpoint: mean survival time, dose: 16.0 mg/kg/injection, schedule: Q01DX009 (ip), vehicle: saline 86 % of control

CCCCCCCCCCCCCCCC(=O)N(C(C)CCCN(CC)CC)C(C)CCCN(CC)CC (stereo unspecified)
inactive: endpoint: mean survival time, dose: 6.25 mg/kg/injection, schedule: Q01DX009 (ip), vehicle: Klucel (hydroxypropylcellulose) (HPC) 101 % of control | endpoint: mean survival time, dose: 12.5 mg/kg/injection, schedule: Q01DX009 (ip), vehicle: Klucel (hydroxypropylcellulose) (HPC) 100 % of control | endpoint: mean survival time, dose: 25.0 mg/kg/injection, schedule: Q01DX009 (ip), vehicle: Klucel (hydroxypropylcellulose) (HPC) 91 % of control

O=C(C=[As](c1ccccc1)(c1ccccc1)c1ccccc1)c1ccccc1
inactive: endpoint: mean survival time, dose: 75.0 mg/kg/injection, schedule: Q01DX001 (ip), vehicle: other 91 % of control | endpoint: mean survival time, dose: 150.0 mg/kg/injection, schedule: Q01DX001 (ip), vehicle: other 100 % of control | endpoint: mean survival time, dose: 300.0 mg/kg/injection, schedule: Q01DX001 (ip), vehicle: other 91 % of control
